#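 Interpolation was linear, between the two tested concentrations surrounding the appropriate level; five concentrations were tested over 48 hours in 96-well plates. GI50 marks 50% less growth. TGI denotes the concentration required for complete inhibition of growth.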
# Experiments:
# Experiment in all cases: NCI tumour cell line growth inhibition, 48 h
# SF-539 CNS = test system: SF-539 CNS
# HCT-116 colon = test system: HCT-116 colon
# CAKI-1 renal = test system: CAKI-1 renal
# SK-MEL-2 melanoma = test system: SK-MEL-2 melanoma
# NCI-H522 lung = test system: NCI-H522 lung
# SK-MEL-28 melanoma = test system: SK-MEL-28 melanoma
# K-562 leukemia = test system: K-562 leukemia
# UACC-62 melanoma = test system: UACC-62 melanoma
# SK-MEL-5 melanoma = test system: SK-MEL-5 melanoma
# HS 578T breast = test system: HS 578T breast
# SK-OV-3 ovarian = test system: SK-OV-3 ovarian
# NCI-H226 lung = test system: NCI-H226 lung
# SN12C renal = test system: SN12C renal
# NCI-H23 lung = test system: NCI-H23 lung
# PC-3 prostate = test system: PC-3 prostate
# TK-10 renal = test system: TK-10 renal
# MDA-MB-435 = test system: MDA-MB-435
# RPMI-8226 leukemia = test system: RPMI-8226 leukemia
# MOLT-4 leukemia = test system: MOLT-4 leukemia
# OVCAR-5 ovarian = test system: OVCAR-5 ovarian
# IGROV1 ovarian = test system: IGROV1 ovarian
# BT-549 breast = test system: BT-549 breast
# NCI-H460 lung = test system: NCI-H460 lung
# OVCAR-8 ovarian = test system: OVCAR-8 ovarian
# HCC-2998 colon = test system: HCC-2998 colon
# A498 renal = test system: A498 renal
# NCI/ADR-RES ovarian = test system: NCI/ADR-RES ovarian
# HL-60(TB) leukemia = test system: HL-60(TB) leukemia
# LOX IMVI melanoma = test system: LOX IMVI melanoma
# HOP-62 NSCLC = test system: HOP-62 NSCLC
# CCRF-CEM leukemia = test system: CCRF-CEM leukemia
# 786-0 renal = test system: 786-0 renal
# DU-145 prostate = test system: DU-145 prostate
# SW-620 colon = test system: SW-620 colon
# COLO 205 colon = test system: COLO 205 colon
# RXF 393 renal = test system: RXF 393 renal
# HOP-92 NSCLC = test system: HOP-92 NSCLC
# A549 NSCLC = test system: A549 NSCLC
# SNB-19 CNS = test system: SNB-19 CNS
# SR leukemia = test system: SR leukemia
# SF-268 CNS = test system: SF-268 CNS
# KM12 colon = test system: KM12 colon
# T-47D breast = test system: T-47D breast
# HT29 colon = test system: HT29 colon
# MCF7 breast = test system: MCF7 breast
# EKVX NSCLC = test system: EKVX NSCLC
# UO-31 renal = test system: UO-31 renal
# UACC-257 melanoma = test system: UACC-257 melanoma
# OVCAR-3 ovarian = test system: OVCAR-3 ovarian
# ACHN renal = test system: ACHN renal
# SNB-75 CNS = test system: SNB-75 CNS
# U251 CNS = test system: U251 CNS
# SF-295 CNS = test system: SF-295 CNS
# HCT-15 colon = test system: HCT-15 colon
# OVCAR-4 ovarian = test system: OVCAR-4 ovarian
# MALME-3M melanoma = test system: MALME-3M melanoma
# M14 melanoma = test system: M14 melanoma
# MDA-MB-231 breast = test system: MDA-MB-231 breast
# MDA-N = test system: MDA-N
structure (smiles),measurement,setting,value
FC(F)(F)c1ccc(-c2nn3ncccc3c2-c2ccnc(Nc3ccc4c(c3)OCCO4)n2)cc1,GI50,SF-539 CNS,> 19.7 µM
same,TGI,SF-539 CNS,> 25 µM
same,GI50,HCT-116 colon,8.15 µM
same,TGI,HCT-116 colon,> 25 µM
same,GI50,CAKI-1 renal,4.86 µM
same,TGI,CAKI-1 renal,> 19.2 µM
same,GI50,SK-MEL-2 melanoma,11.6 µM
same,TGI,SK-MEL-2 melanoma,> 25 µM
same,GI50,NCI-H522 lung,8.79 µM
same,TGI,NCI-H522 lung,> 25 µM
same,GI50,SK-MEL-28 melanoma,> 25 µM
same,TGI,SK-MEL-28 melanoma,> 25 µM
same,GI50,K-562 leukemia,8.79 µM
same,TGI,K-562 leukemia,> 25 µM
same,GI50,UACC-62 melanoma,10 µM
same,TGI,UACC-62 melanoma,> 25 µM
same,GI50,SK-MEL-5 melanoma,6.42 µM
same,TGI,SK-MEL-5 melanoma,> 25 µM
same,GI50,HS 578T breast,10.9 µM
same,TGI,HS 578T breast,> 25 µM
same,GI50,SK-OV-3 ovarian,9.08 µM
same,TGI,SK-OV-3 ovarian,> 25 µM
same,GI50,NCI-H226 lung,> 20.5 µM
same,TGI,NCI-H226 lung,> 25 µM
same,GI50,SN12C renal,9.77 µM
same,TGI,SN12C renal,> 25 µM
same,GI50,NCI-H23 lung,14.7 µM
same,TGI,NCI-H23 lung,> 25 µM
same,GI50,PC-3 prostate,7.32 µM
same,TGI,PC-3 prostate,> 25 µM
same,GI50,TK-10 renal,10.1 µM
same,TGI,TK-10 renal,> 25 µM
same,GI50,MDA-MB-435,10.7 µM
same,TGI,MDA-MB-435,> 25 µM
same,GI50,RPMI-8226 leukemia,5.97 µM
same,TGI,RPMI-8226 leukemia,> 20.4 µM
same,GI50,MOLT-4 leukemia,6.11 µM
same,TGI,MOLT-4 leukemia,> 23.3 µM
same,GI50,OVCAR-5 ovarian,7.11 µM
same,TGI,OVCAR-5 ovarian,> 23.2 µM
same,GI50,IGROV1 ovarian,5.19 µM
same,TGI,IGROV1 ovarian,> 25 µM
same,GI50,BT-549 breast,17.3 µM
same,TGI,BT-549 breast,> 25 µM
same,GI50,NCI-H460 lung,11.9 µM
same,TGI,NCI-H460 lung,> 25 µM
same,GI50,OVCAR-8 ovarian,13.2 µM
same,TGI,OVCAR-8 ovarian,> 25 µM
same,GI50,HCC-2998 colon,6.56 µM
same,TGI,HCC-2998 colon,> 25 µM
same,GI50,A498 renal,4.68 µM
same,TGI,A498 renal,> 25 µM
same,GI50,NCI/ADR-RES ovarian,9.6 µM
same,TGI,NCI/ADR-RES ovarian,> 25 µM
same,GI50,HL-60(TB) leukemia,7.16 µM
same,TGI,HL-60(TB) leukemia,> 21.8 µM
same,GI50,LOX IMVI melanoma,5.16 µM
same,TGI,LOX IMVI melanoma,15.3 µM
same,GI50,HOP-62 NSCLC,> 25 µM
same,TGI,HOP-62 NSCLC,> 25 µM
same,GI50,CCRF-CEM leukemia,10.8 µM
same,TGI,CCRF-CEM leukemia,> 25 µM
same,GI50,786-0 renal,17.3 µM
same,TGI,786-0 renal,> 25 µM
same,GI50,DU-145 prostate,16.4 µM
same,TGI,DU-145 prostate,> 25 µM
same,GI50,SW-620 colon,> 25 µM
same,TGI,SW-620 colon,> 25 µM
same,GI50,COLO 205 colon,16.6 µM
same,TGI,COLO 205 colon,> 25 µM
same,GI50,RXF 393 renal,4.4 µM
same,TGI,RXF 393 renal,> 17 µM
same,GI50,HOP-92 NSCLC,2.02 µM
same,TGI,HOP-92 NSCLC,21.9 µM
same,GI50,A549 NSCLC,21.4 µM
same,TGI,A549 NSCLC,> 25 µM
same,GI50,SNB-19 CNS,> 25 µM
same,TGI,SNB-19 CNS,> 25 µM
same,GI50,SR leukemia,> 25 µM
same,TGI,SR leukemia,> 25 µM
same,GI50,SF-268 CNS,> 21.3 µM
same,TGI,SF-268 CNS,> 25 µM
same,GI50,KM12 colon,10.7 µM
same,TGI,KM12 colon,> 25 µM
same,GI50,T-47D breast,4.78 µM
same,TGI,T-47D breast,> 25 µM
same,GI50,HT29 colon,6.03 µM
same,TGI,HT29 colon,> 25 µM
same,GI50,MCF7 breast,8.04 µM
same,TGI,MCF7 breast,> 25 µM
same,GI50,EKVX NSCLC,4.02 µM
same,TGI,EKVX NSCLC,> 25 µM
same,GI50,UO-31 renal,3 µM
same,TGI,UO-31 renal,> 21.9 µM
same,GI50,UACC-257 melanoma,7.23 µM
same,TGI,UACC-257 melanoma,> 25 µM
same,GI50,OVCAR-3 ovarian,11.6 µM
same,TGI,OVCAR-3 ovarian,> 25 µM
same,GI50,ACHN renal,14.7 µM
same,TGI,ACHN renal,> 25 µM
same,GI50,SNB-75 CNS,> 8.49 µM
same,TGI,SNB-75 CNS,> 25 µM
same,GI50,U251 CNS,14.1 µM
same,TGI,U251 CNS,> 25 µM
same,GI50,SF-295 CNS,6.91 µM
same,TGI,SF-295 CNS,> 25 µM
same,GI50,HCT-15 colon,8.18 µM
same,TGI,HCT-15 colon,> 25 µM
same,GI50,OVCAR-4 ovarian,10.2 µM
same,TGI,OVCAR-4 ovarian,> 25 µM
same,GI50,MALME-3M melanoma,7.29 µM
same,TGI,MALME-3M melanoma,> 25 µM
same,GI50,M14 melanoma,8.92 µM
same,TGI,M14 melanoma,> 25 µM
same,GI50,MDA-MB-231 breast,3.49 µM
same,TGI,MDA-MB-231 breast,> 21.9 µM
C=C1C(=O)OC2C1CCC(C)C1(O)C=CC(=O)C21C (configuration not stated),TGI,SF-539 CNS,> 10 µM
same,TGI,HCT-116 colon,> 10 µM
same,TGI,SK-MEL-2 melanoma,> 10 µM
same,TGI,SK-MEL-28 melanoma,> 10 µM
same,TGI,K-562 leukemia,> 10 µM
same,TGI,UACC-62 melanoma,> 10 µM
same,TGI,SK-MEL-5 melanoma,> 10 µM
same,TGI,HS 578T breast,> 10 µM
same,TGI,SK-OV-3 ovarian,> 10 µM
same,TGI,NCI-H226 lung,> 10 µM
same,TGI,SN12C renal,> 10 µM
same,TGI,NCI-H23 lung,> 10 µM
same,TGI,PC-3 prostate,> 10 µM
same,TGI,TK-10 renal,> 10 µM
same,TGI,MDA-MB-435,> 10 µM
same,TGI,RPMI-8226 leukemia,> 10 µM
same,TGI,MOLT-4 leukemia,> 10 µM
same,TGI,IGROV1 ovarian,> 10 µM
same,TGI,NCI-H460 lung,> 10 µM
same,TGI,OVCAR-8 ovarian,> 10 µM
same,TGI,HCC-2998 colon,> 10 µM
same,TGI,A498 renal,> 10 µM
same,TGI,NCI/ADR-RES ovarian,> 10 µM
same,TGI,HL-60(TB) leukemia,9.5 µM
same,TGI,LOX IMVI melanoma,> 10 µM
same,TGI,HOP-62 NSCLC,> 10 µM
same,TGI,CCRF-CEM leukemia,> 10 µM
same,TGI,786-0 renal,> 10 µM
same,TGI,SW-620 colon,> 10 µM
same,TGI,COLO 205 colon,> 10 µM
same,TGI,RXF 393 renal,> 10 µM
same,TGI,HOP-92 NSCLC,> 10 µM
same,TGI,A549 NSCLC,> 10 µM
same,TGI,SNB-19 CNS,> 10 µM
same,TGI,SR leukemia,> 10 µM
same,TGI,SF-268 CNS,> 10 µM
same,TGI,KM12 colon,> 10 µM
same,TGI,T-47D breast,> 10 µM
same,TGI,HT29 colon,> 10 µM
same,TGI,MCF7 breast,> 10 µM
same,TGI,EKVX NSCLC,> 10 µM
same,TGI,UO-31 renal,> 10 µM
same,TGI,OVCAR-3 ovarian,> 10 µM
same,TGI,ACHN renal,> 10 µM
same,TGI,SNB-75 CNS,> 10 µM
same,TGI,U251 CNS,> 10 µM
same,TGI,SF-295 CNS,> 10 µM
same,TGI,HCT-15 colon,> 10 µM
same,TGI,MDA-N,> 10 µM
same,TGI,OVCAR-4 ovarian,> 10 µM
same,TGI,MALME-3M melanoma,> 10 µM

# From PubChem BioAssay (NCI)
